Reference: patent publication US5661151A, “Tetrahydrofuran antifungals” (Schering Corporation, priority 1995, dated 1997)
≈ marks a conversion by molar mass, not a printed value.

Experiments:
[1] = tested on: Candida albicans; assay: In vitro broth dilution MIC, Candida albicans; type: cell-based; settings: 26 strains; for MIC90: read-out: MIC 90 (Minimum Inhibitory Concentrations for 90% of the strains)
Experimental: (§1) The in vitro antifungal activity tests were performed via conventional broth dilution methods in Sabouraud dextrose broth ("SDB") medium and Eagles Minimum Essential Medium ("EMEM") against a large number of fungi. Minimum Inhibitory Concentrations ("MICs") were measured after 24, 48 and 72 hour tests. In many cases, Minimum Fungicidial Concentrations ("MFCS") were measured after 48 and 72 hours.

[2] = tested on: Cryptococcus neoformans; assay: In vitro broth dilution MIC, Cryptococcus neoformans; type: cell-based; settings: 3 strains
Experimental: as §1

[3] = tested on: Candida glabrata; assay: In vitro broth dilution MIC, Candida glabrata; type: cell-based; settings: 9 strains; for MIC90: Nakaseomyces glabratus, read-out: MIC 90 (Minimum Inhibitory Concentrations for 90% of the strains)
Experimental: as §1

[4] = tested on: Aspergillus; assay: In vitro broth dilution MIC, Aspergillus; type: cell-based, Aspergillus flavus, fumigatus and other species; settings: for MIC90: read-out: MIC 90 (Minimum Inhibitory Concentrations for 90% of the strains)
Experimental: as §1

[5] = tested on: Aspergillus; assay: In vitro broth dilution MFC, Aspergillus; type: cell-based, Aspergillus flavus, fumigatus and other species; settings: 37 strains
Experimental: as §1

[6] = tested on: Dermatophytes; assay: In vitro broth dilution MFC, dermatophytes; type: cell-based, T. rubrum, T. mentagrophytes, and T. tonsurans; settings: 6 strains
Experimental: as §1

[7] = tested on: Candida krusei; assay: In vitro broth dilution MFC, Candida krusei; type: cell-based; settings: 16 strains
Experimental: as §1

[8] = tested on: cytochrome P-450 liver drug metabolizing enzymes; assay: Induction of cytochrome P-450 liver drug metabolizing enzymes in an in vivo rat model; settings: after oral administration
[9] = Serum levels, serum half lives and tissue distribution following oral dosing; type: in vivo, mice, rats, dogs and monkeys
[10] = tested on: Candida tropicalis & stellatoidea; settings: 5 strains
Experimental: as §1

[11] = tested on: Candida krusei; assay: In vitro broth dilution MIC, Candida krusei; type: cell-based; settings: 16 strains
[12] = tested on: Candida albicans; settings: 26 strains
Experimental: as §1

[13] = tested on: Candida tropicalis & stellatoidea; assay: In vitro broth dilution MIC, Candida tropicalis & stellatoidea; type: cell-based; settings: 5 strains
Experimental: as §1

[14] = tested on: Cryptococcus neoformans; assay: In vitro broth dilution MFC, Cryptococcus neoformans; type: cell-based; settings: 3 strains
Experimental: as §1

[15] = tested on: Dermatophytes; assay: In vitro broth dilution MIC, dermatophytes; type: cell-based, T. rubrum, T. mentagrophytes, and T. tonsurans; settings: 6 strains
[16] = tested on: Candida glabrata; assay: In vitro broth dilution MFC, Candida glabrata; type: cell-based; settings: 9 strains
Experimental: as §1

Row | Structure (SMILES) | MIC90 [1] | MIC 90 (Minimum Inhibitory Concentrations for 90% of the strains) [2] | MIC90 [3] | MIC90 ([4]; Aspergillus, 37 strains) | Percentage of strains with MFCs ≤1 mcg/ml [5] | Percentage of strains with MFCs ≤1 mcg/ml [6] | Percentage of strains with MFCs ≤1 mcg/ml [7] | other results
1 | CC[C@H]([C@H](C)O)n1ncn(-c2ccc(N3CCN(c4ccc(OC[C@@H]5CO[C@@](Cn6cncn6)(c6ccc(F)cc6F)C5)cc4)CC3)cc2)c1=O | 0.274 µg/mL (≈ 0.391 µM) | .05 MCG/ML | 28.8 µg/mL (≈ 41.1 µM) | 0.122 µg/mL (≈ 0.174 µM) | 50 PERCENTAGE | 67 PERCENTAGE | 88 PERCENTAGE | –
2 | CCC(C(C)O)n1ncn(-c2ccc(N3CCN(c4ccc(OCC5COC(Cn6cncn6)(c6ccc(F)cc6F)C5)cc4)CC3)cc2)c1=O (centres unmarked) [drawing 21] | – | – | – | – | – | – | – | induction of various cytochrome P-450 liver drug metabolizing enzymes [8]: not inducers; serum half lives ([9]; following O.D. dosing): very long serum half lives; serum levels compared to azoles of similar structure ([9]; mice, rats, dogs and monkeys, oral dosing with a methyl cellulose formulation): consistently higher serum levels
3 | CCC(C(C)O)n1ncn(-c2ccc(N3CCN(c4ccc(OCC5COC(Cn6cncn6)(c6ccc(F)cc6F)C5)cc4)CC3)cc2)c1=O (centres unmarked) [drawing 24] | – | – | – | – | 89 PERCENTAGE | 100 PERCENTAGE | 100 PERCENTAGE | –
4 | OC(Cn1cncn1)(Cn1cncn1)c1ccc(F)cc1F [FLZ, fluconazole] | 0.887 µg/mL (≈ 2.9 µM) | – | 29.3 µg/mL (≈ 95.7 µM) | 29.9 µg/mL (≈ 97.6 µM) | 0 PERCENTAGE | 0 PERCENTAGE | 0 PERCENTAGE | Percentage of strains with MICs ≤1 mcg/ml [1]: 100 PERCENTAGE; Percentage of strains with MICs ≤1 mcg/ml [2]: 0 PERCENTAGE; MIC90 ([2]; read-out: MIC 90 (Minimum Inhibitory Concentrations for 90% of the strains)): 25.9 µg/mL (≈ 84.6 µM); Percentage of strains with MICs ≤1 mcg/ml [3]: 0 PERCENTAGE; Percentage of strains with MICs ≤1 mcg/ml ([4]; Aspergillus, 37 strains): 0 PERCENTAGE; MIC ([4]; SDB, 37 species of Aspergillus, read-out: geometric mean MICs): ≥ 32 µg/mL; Percentage of strains with MFCs ≤1 mcg/ml [10]: 100 PERCENTAGE; Percentage of strains with MICs ≤1 mcg/ml [11]: 0 PERCENTAGE; MIC90 ([11]; Pichia kudriavzevii, read-out: MIC 90 (Minimum Inhibitory Concentrations for 90% of the strains)): 29.9 µg/mL (≈ 97.6 µM); Percentage of strains with MFCs ≤1 mcg/ml [12]: 100 PERCENTAGE; Percentage of strains with MICs ≤1 mcg/ml [13]: 100 PERCENTAGE; MIC90 ([13]; Candida tropicalis, read-out: MIC 90 (Minimum Inhibitory Concentrations for 90% of the strains)): 0.917 µg/mL (≈ 2.99 µM); Percentage of strains with MFCs ≤1 mcg/ml [14]: 0 PERCENTAGE; Percentage of strains with MICs ≤1 mcg/ml [15]: 100 PERCENTAGE; Percentage of strains with MFCs ≤1 mcg/ml [16]: 0 PERCENTAGE
5 | CCC(C(C)O)n1ncn(-c2ccc(N3CCN(c4ccc(OCC5COC(Cn6cncn6)(c6ccc(F)cc6F)C5)cc4)CC3)cc2)c1=O (centres unmarked) [drawing 23] | – | .007 MCG/ML | – | – | 62 PERCENTAGE | 83 PERCENTAGE | 94 PERCENTAGE | –
